# Laboratory results as given in PubChem BioAssay AID624167 (Sanford-Burnham Center for Chemical Genomics, 2012).
# Active and inactive are the calls of the source.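 The calls were made as follows: active = mean IC50 for reducing PEG3 promoter reporter signal at or below a set limit, with IC50 above the limit in both counter screens; inactive = the rest, including counter screen hits.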
# Assays:
# PEG-3 [1] = target: PEG-3 (UniProt Q6IN02); assay: inhibition of PEG-3 promoter-driven reporter – cell-based, HeLa, luciferase, CREF/GAPDH counter-screen panel, dose response (AID 624167); settings: HeLa PEG-Prom luciferase reporter, overnight, CREF/GAPDH counter-screens, mean of runs
# PEG-3 [2] = assay: as above; settings: HeLa PEG-Prom luciferase reporter, overnight, CREF/GAPDH counter-screens
# [3] = run 1, dose range 1, individual replicate IC50 per panel
# [4] = run 2, dose range 1, individual replicate IC50 per panel
# PEG-3 (UniProt Q6IN02), sequence (Q6IN02 whole entry, looked up): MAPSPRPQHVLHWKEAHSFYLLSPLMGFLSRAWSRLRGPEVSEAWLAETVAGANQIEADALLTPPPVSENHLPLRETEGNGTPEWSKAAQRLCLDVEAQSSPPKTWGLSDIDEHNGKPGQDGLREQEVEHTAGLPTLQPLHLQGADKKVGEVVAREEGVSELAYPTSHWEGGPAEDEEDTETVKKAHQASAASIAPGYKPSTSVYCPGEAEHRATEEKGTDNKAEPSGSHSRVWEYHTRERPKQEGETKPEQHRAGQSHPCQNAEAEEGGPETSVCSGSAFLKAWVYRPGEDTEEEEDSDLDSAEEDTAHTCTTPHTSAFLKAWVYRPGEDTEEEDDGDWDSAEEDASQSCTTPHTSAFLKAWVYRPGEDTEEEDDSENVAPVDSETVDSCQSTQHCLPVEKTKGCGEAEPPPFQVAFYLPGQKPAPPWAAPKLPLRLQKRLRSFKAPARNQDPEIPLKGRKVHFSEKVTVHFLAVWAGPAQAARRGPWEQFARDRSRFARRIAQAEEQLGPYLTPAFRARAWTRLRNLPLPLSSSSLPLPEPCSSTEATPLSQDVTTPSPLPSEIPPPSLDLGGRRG
SMILES,IC50 (PEG-3 [1]),IC50 (PEG-3 [2]; [3]) [µM],IC50 (PEG-3 [2]; [4]) [µM]
CSc1ccc(CN(C)C(=O)C(Cc2ccccc2)NC(=O)c2ccccc2)cc1 (stereo not drawn),inactive,21.3,24.4
CN(C)CCNc1ncnc2c1sc1nc(N3CCOCC3)c3c(c12)CC(C)(C)SC3,14.4 µM,18.1,10.6
c1ccc(C(=NNc2nc3ccccc3s2)c2ccccn2)cc1,16 µM,6.63,25.3
COc1ccc(C(=O)Nc2cccc(C(=O)N/N=C/c3ccc(OC)cc3OC)c2)cc1,inactive,28.1,38
CCN1CCN(c2ncc(C(=O)Nc3cc(Cl)ccc3OC)c3ccccc23)CC1,inactive,26.6,51.4
Cc1c(C(=O)N2CCN(c3ccc(F)cc3)CC2)sc2ncnc(N3CCN(c4ccccn4)CC3)c12,13.7 µM,11.9,15.6
Cc1ccc2cc3c(N)c4c(C)ccc(C)c4nc3nc2c1,inactive,> 100,17.1
Cc1cc(-n2c(SCC(=O)Nc3ccc(F)c(F)c3)nc3n[nH]c(C)c3c2=N)ccc1Cl,inactive,41,30.3
CN(Cc1ccccc1F)C(=O)C(Cc1ccccc1)NC(=O)c1ccccc1 (stereo not drawn),inactive,32.3,95.6
Cn1nnnc1Sc1ncnc2scc(-c3ccc4c(c3)OCO4)c12,inactive,34.5,53.6
COc1ccccc1NC(=O)c1cc(-c2cc(OC)c(OC)c(OC)c2)nc2ccccc12,15.2 µM,27.3,3.16
NC1=NC[C@H](Cc2ccccc2)N1CCc1cc(C(F)(F)F)cc(C(F)(F)F)c1,inactive,46.5,17.1
COc1ccc(C(O)(CC(C)C)C(CN2CCOCC2)c2ccccc2)cc1 (stereo not drawn),inactive,> 100,6.84
Cc1cc(C)c2sc(N(CCCN(C)C)C(=O)c3ccc(S(=O)(=O)N4CCCc5ccccc54)cc3)nc2c1,14.7 µM,20.7,8.73
COCC(C)n1c(C)cc(C(=O)COC(=O)c2cccn2C)c1C (stereo not drawn),inactive,32.8,> 100
COc1ccc2sc(-c3ccc(S(C)(=O)=O)cc3)c(C#Cc3cncn3C)c2c1,inactive,21.2,> 100
CCCOC(=O)c1cccc(Nc2nc(-c3cccnc3)nc3ccccc23)c1,12.3 µM,12.6,11.9
Cc1ccc2cccc(OCC(=O)Nc3cccc(S(=O)(=O)N4CCCC4)c3)c2n1,inactive,22.3,33.9
CN(C)c1ccc(N=Nc2nc3ccccc3n2C)cc1,inactive,20.6,< 100
CCCN1C/C(=C/c2cccc([N+](=O)[O-])c2)C(=O)/C(=C/c2cccc([N+](=O)[O-])c2)C1,inactive,6.69,> 100
Cc1ccc(S(=O)(=O)N(C)C)cc1NC(=O)c1cncc(Br)c1,inactive,47.7,8.59
O=C(Cn1ncc(Cl)c(Cl)c1=O)N1CCN(Cc2ccccc2)CC1,14 µM,19.5,8.48

SMILES,IC50 (PEG-3 [1]),IC50 (PEG-3 [2]; [3]) [µM],IC50 (PEG-3 [2]; [4]) [µM]
COc1ccc(C[C@H]2CN3C(=NC[C@@H]3Cc3ccc(O)cc3)N2C[C@H](C)NC(=O)c2ccc(C)c(Br)c2)cc1,inactive,22.7,20.8
O=Cc1cn(Cc2ccc(F)cc2)c2ccccc12,18.3 µM,12.5,24.1
Cc1cc(C=C2C(=O)c3ccccc3C2=O)c(C)n1-c1ccccc1,inactive,39.6,> 100
CCc1ccc(NC(=O)CSc2nc3ccccc3c(=O)n2CCCN2CCC(C)CC2)cc1,17.3 µM,19.8,14.8
Cc1ccc(-n2cc(CNCCCn3ccnc3C)c(-c3ccc(F)cc3)n2)cc1,13 µM,15.5,10.6
Oc1[nH]c2ccc(Br)cc2c1N=NC(=S)Nc1ccc(F)cc1,19.3 µM,10.5,28.1
CCN(CC)C(=O)c1ccc(NC(=O)Nc2ccccc2F)cc1,17.2 µM,18.8,15.6
CC1CCCCN1C(=O)c1cccc(NC2=C(Cl)C(=O)N(Cc3ccccc3)C2=O)c1 (stereo not drawn),inactive,29.9,51.8
COc1ccc(CNC(=O)Nc2nc(C(N)Cc3ccc(F)cc3)cs2)cc1 (stereo not drawn),14.6 µM,16.6,12.5
COC(=O)c1ccccc1-c1ccc(/C=N/Nc2nc(N3CCCC3)nc(N3CCCC3)n2)o1,inactive,26.8,34.7
CCc1nc(Nc2ccc(N3CCN(C(C)=O)CC3)cc2)c2oc3ccccc3c2n1,inactive,28.1,94.9
COCCn1c(C)cc(C(=O)CSc2nnc3ccccn23)c1C,15.1 µM,8.34,21.8
CN(CC(=O)Nc1ccc(Cl)c(C(F)(F)F)c1)C(=O)c1cc(-c2ccncc2)nc2ccccc12,16.1 µM,16.2,15.9
O=C(Nc1ccc(-c2cn3ccsc3n2)cc1)c1ccc(F)c(S(=O)(=O)N2CCOCC2)c1,> 100 µM (inactive),> 100,> 100
Cc1nn(-c2ccccc2)c2c1C(c1ccc([N+](=O)[O-])cc1)N1C(=N2)C(=O)Nc2ccccc21 (stereo not drawn),> 100 µM (inactive),> 100,> 100
COc1cc(C=NO)nc(-c2ccccn2)c1,0.52 µM,0.84,< 0.2
COc1ccc2c(c1)C=C([C@@H]1C[C@H]3CN(c4ccccc4)C(=O)[C@]34CCCN14)CO2,> 100 µM (inactive),> 100,> 100
Cc1ccsc1C(=O)OCC(=O)c1cc(C)n(CC2CCCO2)c1C (stereo not drawn),14.9 µM,11.8,18
CCC(C)NCCOCCOc1ccc(Cl)c2ccccc12 (stereo not drawn),18.1 µM,18.6,17.5
CN(C)CCNc1ccc(CO)c2oc3ccc(O)cc3c(=O)c12,16.9 µM,20.4,13.5
COc1ccc(CCNC(=O)C(=O)NCC2CCCN2S(=O)(=O)c2ccccc2)cc1OC (stereo not drawn),inactive,29.8,39.3
CCN(c1ccccc1)S(=O)(=O)c1ccc(C(=O)N(CCCN(C)C)c2nc3cc4c(cc3s2)OCO4)cc1,inactive,23.6,19.7

SMILES,IC50 (PEG-3 [1]),IC50 (PEG-3 [2]; [3]) [µM],IC50 (PEG-3 [2]; [4]) [µM]
CCCCNC(=O)C(C)N(CCN(C)C)C(=O)CCCCCN1C(=O)NC(c2ccc(Cl)cc2)C(C(=O)OCc2ccccc2)=C1C (stereo not drawn),13.2 µM,16.2,10.1
COC(=O)c1ccc(CNC(=O)Cn2cnc3c(NCc4ccccc4)ncnc32)cc1,inactive,29.6,15.5
O=C(C=Cc1ccccn1)c1ccccc1,16.6 µM,20.7,12.5
FC(F)Sc1ccc(NC(=S)NC(c2ccccc2)c2ccccc2)cc1,18 µM,19.9,16
COc1ccc(-c2cc(C(=O)N(C)Cc3ccccc3F)c3ccccc3n2)cc1OC,inactive,23.9,24.1
O=C(C(=O)N(Cc1ccccc1)Cc1ccccc1)c1c(-c2ccccc2)[nH]c2ccccc12,inactive,> 100,7.5
C[C@@H]1[C@H]2[C@@H]3CC[C@@H](C3)[C@H]2CN[C@H]1c1cn(Cc2ccccc2)c2ccccc12,inactive,39,42.7
CC1(C)CC(NCCN2CCN(C3=CC(=C(C#N)C#N)CC(C)(C)C3)CC2)=CC(=C(C#N)C#N)C1,inactive,> 100,8.4
Fc1ccc([C@@H]2CCNC[C@H]2COc2ccc3c(c2)OCO3)cc1,19.5 µM,20,19
COc1cccc(NC(=O)CN(C)C(=O)c2cc(-c3ccc(F)cc3)nc3ccccc23)c1,inactive,25.8,44.6
O=c1c2ccccc2oc2cc(C#CC3(O)CCCCC3)ccc12,inactive,27.8,> 100
CN1CCC(N(C)C(=O)/C=C/c2cn(-c3ccccc3)nc2-c2cccs2)CC1,19 µM,18.4,19.7
O=C1NC(=S)N(c2ccccc2F)C(=O)/C1=C\c1cccs1,16.7 µM,19.1,14.2
COc1nc(N)c(C#N)c(-c2ccc(N(C)CCC#N)cc2)c1C#N,inactive,6.32,35.8
N/C(=N\OC(=O)c1ccccc1)C(Cc1ccccc1)C(=O)NOC(=O)c1ccccc1 (stereo not drawn),13 µM,15,11
Cc1ccc(-c2nc(C(Cl)Cl)c3ccccc3n2)cc1,inactive,> 100,9.67
Cc1c(C(=O)N2CCC3(CC2)OCCO3)sc2ncnc(N3CCN(c4ccccn4)CC3)c12,inactive,24,29
CCCCCCC=C1CCC(CN2CCCC2)C1=O (stereo not drawn),inactive,35.6,29.6
Oc1ccc(C23CCCC2C2(CCCC2)c2ccc(O)cc2O3)c(O)c1 (stereo not drawn),inactive,27.2,54.4
O=C1/C(=C/c2ccccc2Cl)SC(=S)N1CCCC(=O)N(CCO)c1ccccc1,17.8 µM,18.9,16.7
O=S(=O)(NC1CC(NS(=O)(=O)OCC(Cl)(Cl)Cl)C2CCCCC12)OCC(Cl)(Cl)Cl (stereo not drawn),11.4 µM,10.8,11.9
COc1cccc(Nc2nc(C(N)Cc3ccccc3)cs2)n1 (stereo not drawn),18.2 µM,20.4,15.9
